Results reported in paper PMC9583322, “Vicinal Diaryl-Substituted Isoxazole and Pyrazole Derivatives with In Vitro Growth Inhibitory and In Vivo Antitumor Activity” (ACS Omega, 2022).

Experiments:
Huh7 = test: SRB cytotoxicity assay; type: cell-based, human; details: 72 h treatment
Experimental: (§1) HepG2, FOCUS, Hep3B, Mahlavu, Huh7, Hep40, and PLC-PRF-5 hepatocellular carcinoma cells; MCF-7, MDA-MB-231, MDA-MB-468, SKBR3, and ZR-75 breast cancer cells; and normal-like epithelial MCF-10A breast cells were cultured in low-glucose Dulbecco’s modified Eagle’s medium (DMEM) (Biological Industries-BI) supplemented with 10% fetal bovine serum (FBS) (Gibco/Thermo Fisher Scientific), 2 mM L-Glutamine (Gibco/Thermo Fisher Scientific), 100 Units/mL Penicillin/Streptomycin, and 0.1 mM non-essential amino acid (Gibco/Thermo Fisher Scientific). SNU475 hepatocellular carcinoma cells were maintained in RPMI (Biological Industries-BI) supplemented with 10% fetal bovine serum (FBS) (Gibco/Thermo Fisher Scientific), L-Glutamine (Gibco/Thermo Fisher Scientific), and 100 Units/mL Penicillin/Streptomycin, while ZR-75 breast cancer cells were cultured RPMI (Biological Industries-BI) supplemented with 10% fetal bovine serum (FBS) (Gibco/Thermo Fisher Scientific), 1× sodium pyruvate, and %4.5 glucose. Normal-like MCF-10A breast cells were sustained in DMEM/HAM’S F12 (Hyclone) supplemented with 10% fetal bovine serum (FBS) (Gibco/Thermo Fisher Scientific), EGF (20 ng/mL), Hydrocortisone ([…]), cholera toxin (100 ng/mL), insulin (10 μg/mL), and 100 Units/mL Penicillin/Streptomycin. The cells were cultivated at 37 °C in a humidified incubator under 5% CO2.
(§2) Mahlavu, FOCUS, SNU475 (1000 cell/well in 150 μL/well); Huh7, MCF7 (2500 cell/well in 150 μL/well); HepG2, Hep3B, SKBR3 (3000 cell/well in 150 μL/well); PLC-PRF-5, Hep40 (5000 cell/well in 150 μL/well); MDA-MB-231, MDA-MB-468, MCF10A (6000 cell/well in 150 μL/well); and ZR-75 (7500 cell/well in 150 μL/well) were cultured in 96-well plates and were inoculated in an incubator for 24 hours. The compounds were dissolved in dimethyl sulfoxide (DMSO) (Sigma, St Louis, MO) as a 20 mM stock solution. The treatment of cells with the compounds was done in a concentration range starting from 40 to 2.5 μM. The compounds which were below 2.5 μM were tested in a concentration range from 2.5 to 0.15 μM. End of the 72h compound treatment, the cells were fixed using 10% (v/v) trichloroacetic acid (MERCK) for an hour and washed with ddH2O, and left for air-drying. The fixed plates were stained with 50 μL of sulforhodamine B (SRB) solution (Sigma) at RT for 10 min. To remove unbound SRB dye, acetic acid was used to wash cells three times and left for drying. The protein-bound SRB was solubilized with 10 mM Tris-base (Sigma) and their absorbance was measured with a 96-well plate reader at 515 nm wavelength (ELx800, Biotek). The IC50 values of compounds were calculated in comparison with control group DMSO. Data with R^2 values larger than 0.9 are considered significant.

MCF7 = test: SRB cytotoxicity assay; type: cell-based, human; details: 72 h treatment
Experimental: as §1, §2

“5-Methyl-4-(2,4-difluoromethylphenyl)-3-(4-((2-methylbenzyl)oxy)phenyl)isoxazole [compound 52]” showed an IC50 (Huh7) of 15 µM and an IC50 (MCF7) greater than 20 µM.

In the case of COc1ccccc1COc1ccc(-c2noc(C)c2-c2ccc(Cl)cc2)cc1 [compound 12, 4-(4-Chlorophenyl)-3-(4-((2-methoxybenzyl)oxy)phenyl)-5-methylisoxazole], the IC50 (Huh7; Homo sapiens, Huh-7, 72 h) is reported as greater than 20 µM, the IC50 (MCF7; Homo sapiens, MCF7, 72 h) is reported as greater than 20 µM and the melting point is reported as 156.8 to 157.7 °C.

With Cc1ccccc1COc1ccc(-c2noc(C)c2-c2ccc(Cl)cc2)cc1F [compound 57, 4-(4-Chlorophenyl)-3-(3-fluoro-4-((2-methylbenzyl)oxy)phenyl)-5-methylisoxazole] the IC50 (Huh7; Homo sapiens, Huh-7, 72 h) was 9.8 µM, the IC50 (MCF7; Homo sapiens, MCF7, 72 h) was greater than 20 µM and the melting point was 108 to 110.2 °C.

In the case of COc1cccc(COc2ccc(-c3noc(C)c3-c3ccc(Cl)cc3)cc2)c1 [compound 20, 4-(4-Chlorophenyl)-3-(4-((3-methoxybenzyl)oxy)phenyl)-5-methylisoxazole], the IC50 (Huh7; Homo sapiens, Huh-7, 72 h) is reported as 3.6 µM, the IC50 (MCF7; Homo sapiens, MCF7, 72 h) is reported as 12 µM and the melting point is reported as 105.1 to 106.8 °C.

Cc1ncccc1COc1ccc(-c2noc(C)c2-c2ccc(Cl)cc2)cc1 [compound 35, 4-(4-Chlorophenyl)-5-methyl-3-(4-((2-methylpyridin-3-yl)methoxy)phenyl)isoxazole] showed an IC50 (Huh7; Homo sapiens, Huh-7, 72 h) of 3.9 µM, an IC50 (MCF7; Homo sapiens, MCF7, 72 h) of 6.1 µM and a melting point of 107.2 to 108.8 °C.

Cc1onc(-c2ccc(OCc3cncn3C(C)C)cc2)c1-c1ccc(Cl)cc1 [compound 41, 4-(4-Chlorophenyl)-3-(4-((1-isopropyl-1H-imidazol-5-yl)methoxy)phenyl)-5-methylisoxazole] showed an IC50 (Huh7; Homo sapiens, Huh-7, 72 h) of 2.5 µM, an IC50 (MCF7; Homo sapiens, MCF7, 72 h) of 16.7 µM and a melting point of 168.4 to 170.7 °C.

Work on Cc1ccccc1COc1ccc(-c2noc(C)c2-c2ccccc2Cl)cc1 [compound 44, 5-Methyl-4-(2-chlorophenyl)-3-(4-((2-methylbenzyl)oxy)phenyl)isoxazole] yielded an IC50 (Huh7; Homo sapiens, Huh-7, 72 h) greater than 20 µM, an IC50 (MCF7; Homo sapiens, MCF7, 72 h) of 9.9 µM and a melting point of 103.8 to 104.4 °C.

With Cc1ccccc1COc1ccc(-c2noc(C)c2-c2ccc(N)cc2)cc1 [compound 51, 5-Methyl-4-(4-aminophenyl)-3-(4-((2-methylbenzyl)oxy)phenyl)isoxazole] the IC50 (Huh7; Homo sapiens, Huh-7, 72 h) was 16.9 µM, the IC50 (MCF7; Homo sapiens, MCF7, 72 h) was 19.7 µM and the melting point was 119.4 to 121.1 °C.

Compound Cc1ccccc1COc1ccc(-c2noc(C)c2-c2ccc(Cl)cc2Cl)cc1 [compound 53, 5-Methyl-4-(2,4-dichlorophenyl)-3-(4-((2-methylbenzyl)oxy)phenyl)isoxazole] has an IC50 (Huh7; Homo sapiens, Huh-7, 72 h) of 8.2 µM, an IC50 (MCF7; Homo sapiens, MCF7, 72 h) of 19.2 µM and a melting point of 98 to 98.4 °C.

Work on Cc1onc(-c2ccc(OCc3ccccc3Cl)cc2)c1-c1ccc(Cl)cc1 [compound 16, 4-(4-Chlorophenyl)-3-(4-((2-chlorobenzyl)oxy)phenyl)-5-methylisoxazole] yielded an IC50 (Huh7; Homo sapiens, Huh-7, 72 h) of 20 µM, an IC50 (MCF7; Homo sapiens, MCF7, 72 h) greater than 20 µM and a melting point of 105.2 to 106.4 °C.

Work on Cc1cccc(COc2ccc(-c3noc(C)c3-c3ccc(Cl)cc3)cc2)n1 [compound 37, 4-(4-Chlorophenyl)-5-methyl-3-(4-((6-methylpyridin-2-yl)methoxy)phenyl)isoxazole] yielded an IC50 (Huh7; Homo sapiens, Huh-7, 72 h) of 6.9 µM, an IC50 (MCF7; Homo sapiens, MCF7, 72 h) of 12.9 µM and a melting point of 126.1 to 127.5 °C.

In the case of Cc1onc(-c2ccc(OCc3ccccc3F)cc2)c1-c1ccc(Cl)cc1 [compound 15, 4-(4-Chlorophenyl)-3-(4-((2-fluorobenzyl)oxy)phenyl)-5-methylisoxazole], the IC50 (Huh7; Homo sapiens, Huh-7, 72 h) is reported as greater than 20 µM, the IC50 (MCF7; Homo sapiens, MCF7, 72 h) is reported as greater than 20 µM and the melting point is reported as 119.5 to 120.9 °C.

COC(=O)c1ccc(COc2ccc(-c3noc(C)c3-c3ccc(Cl)cc3)cc2)cc1 [compound 28, Methyl-4-((4-(4-(4-chlorophenyl)-5-methylisoxazol-3-yl)phenoxy)methyl)benzoate] showed an IC50 (Huh7; Homo sapiens, Huh-7, 72 h) of 12.7 µM, an IC50 (MCF7; Homo sapiens, MCF7, 72 h) greater than 20 µM and a melting point of 110.7 to 111.9 °C.

Cc1onc(-c2ccc(OCc3ccncc3)cc2)c1-c1ccc(Cl)cc1 [compound 33, 4-(4-Chlorophenyl)-5-methyl-3-(4-(pyridin-4-ylmethoxy)phenyl)isoxazole] showed an IC50 (Huh7; Homo sapiens, Huh-7, 72 h) of 11.4 µM, an IC50 (MCF7; Homo sapiens, MCF7, 72 h) of 14.5 µM and a melting point of 124.2 to 125.8 °C.

Work on Cc1cc(COc2ccc(-c3noc(C)c3-c3ccc(Cl)cc3)cc2)n(C)n1 [compound 40, 4-(4-Chlorophenyl)-3-(4-((1,3-dimethyl-1H-pyrazol-5-yl)methoxy)phenyl)-5-methylisoxazole] yielded an IC50 (Huh7; Homo sapiens, Huh-7, 72 h) of 0.9 µM, an IC50 (MCF7; Homo sapiens, MCF7, 72 h) of 12.2 µM and a melting point of 156.4 to 157.9 °C.

Cc1noc(C)c1COc1ccc(-c2noc(C)c2-c2ccc(Cl)cc2)cc1 [compound 39, 4-(4-Chlorophenyl)-3-(4-((3,5-dimethylisoxazol-4-yl)methoxy)phenyl)-5-methylisoxazole] showed an IC50 (Huh7; Homo sapiens, Huh-7, 72 h) of 3.7 µM, an IC50 (MCF7; Homo sapiens, MCF7, 72 h) greater than 20 µM and a melting point of 138.9 to 141.3 °C.

Work on COc1ccc(COc2ccc(-c3noc(C)c3-c3ccc(Cl)cc3)cc2)cc1 [compound 25, 4-(4-Chlorophenyl)-3-(4-((4-methoxybenzyl)oxy)phenyl)-5-methylisoxazole] yielded an IC50 (Huh7; Homo sapiens, Huh-7, 72 h) greater than 20 µM, an IC50 (MCF7; Homo sapiens, MCF7, 72 h) greater than 20 µM and a melting point of 126.1 to 127.4 °C.

In the case of Cc1ccc(-c2c(-c3ccc(OCc4ccccc4C)cc3)noc2C)cc1 [compound 47, 5-Methyl-4-(4-methylphenyl)-3-(4-((2-methylbenzyl)oxy)phenyl)isoxazole], the IC50 (Huh7; Homo sapiens, Huh-7, 72 h) is reported as 1.8 µM, the IC50 (MCF7; Homo sapiens, MCF7, 72 h) is reported as 4.7 µM and the melting point is reported as 130.8 to 131.8 °C.

For Cc1onc(-c2ccc(OCc3ccccc3OC(F)F)cc2)c1-c1ccc(Cl)cc1 [compound 14, 4-(4-Chlorophenyl)-3-(4-((2-(difluoromethoxy)benzyl)oxy)phenyl)-5-methylisoxazole], the IC50 (Huh7; Homo sapiens, Huh-7, 72 h) was 13.8 µM, the IC50 (MCF7; Homo sapiens, MCF7, 72 h) was 8.5 µM and the melting point was 95.5 to 96.9 °C.

Compound Cc1onc(-c2ccc(OCc3ccc(C(=O)O)cc3)cc2)c1-c1ccc(Cl)cc1 [compound 29, 4-((4-(4-(4-Chlorophenyl)-5-methylisoxazol-3-yl)phenoxy)methyl)benzoic acid] has an IC50 (Huh7; Homo sapiens, Huh-7, 72 h) of 8.6 µM, an IC50 (MCF7; Homo sapiens, MCF7, 72 h) of 15 µM and a melting point of 210.8 to 212.4 °C.

With Cc1cccnc1COc1ccc(-c2noc(C)c2-c2ccc(Cl)cc2)cc1 [compound 36, 4-(4-Chlorophenyl)-5-methyl-3-(4-((3-methylpyridin-2-yl)methoxy)phenyl)isoxazole] the IC50 (Huh7; Homo sapiens, Huh-7, 72 h) was 9.4 µM, the IC50 (MCF7) was greater than 20 µM and the IC50 (MCF7; Homo sapiens, MCF7, 72 h) was no less than 20 µM. It also gave a melting point of 138.7 to 141.2 °C.

In the case of Cc1onc(-c2ccc(OCc3ccccc3C(F)(F)F)cc2)c1-c1ccc(Cl)cc1 [compound 18, 4-(4-Chlorophenyl)-5-methyl-3-(4-((2-(trifluoromethyl)benzyl)oxy)phenyl)isoxazole], the IC50 (Huh7; Homo sapiens, Huh-7, 72 h) is reported as 14.2 µM, the IC50 (MCF7; Homo sapiens, MCF7, 72 h) is reported as greater than 20 µM and the melting point is reported as 132.8 to 134.4 °C.

Compound Cc1ccccc1COc1ccc(-c2noc(C)c2-c2ccc(C#N)cc2)cc1 [compound 48, 5-Methyl-4-(4-cyanophenyl)-3-(4-((2-methylbenzyl)oxy)phenyl)isoxazole] has an IC50 (Huh7; Homo sapiens, Huh-7, 72 h) of 6.7 µM, an IC50 (MCF7) greater than 20 µM and an IC50 (MCF7; Homo sapiens, MCF7, 72 h) of no less than 20 µM. The melting point was 135.3 to 137.1 °C.

Cc1onc(-c2ccc(OCc3ccc(Cl)nc3)cc2)c1-c1ccc(Cl)cc1 [compound 38, 4-(4-Chlorophenyl)-3-(4-((6-chloropyridin-3-yl)methoxy)phenyl)-5-methylisoxazole] showed an IC50 (Huh7; Homo sapiens, Huh-7, 72 h) greater than 20 µM, an IC50 (MCF7; Homo sapiens, MCF7, 72 h) greater than 20 µM and a melting point of 168.2 to 170.8 °C.

Work on Cc1onc(-c2ccc(OCc3ccc(F)cc3)cc2)c1-c1ccc(Cl)cc1 [compound 26, 4-(4-Chlorophenyl)-3-(4-((4-fluorobenzyl)oxy)phenyl)-5-methylisoxazole] yielded an IC50 (Huh7; Homo sapiens, Huh-7, 72 h) of 19 µM, an IC50 (MCF7; Homo sapiens, MCF7, 72 h) of 13 µM and a melting point of 99.3 to 100.7 °C.

In the case of “5-Methyl-4-(3-fluoromethylphenyl)-3-(4-((2-methylbenzyl)oxy)phenyl)isoxazole [compound 50]”, the IC50 (Huh7) is reported as 15 µM and the IC50 (MCF7) is reported as greater than 20 µM.

For Cc1ccccc1COc1ccc(-c2noc(C)c2-c2cccc(C(F)(F)F)c2)cc1 [compound 49, 5-Methyl-4-(3-trifluoromethylphenyl)-3-(4-((2-methylbenzyl)oxy)phenyl)isoxazole], the IC50 (Huh7; Homo sapiens, Huh-7, 72 h) was 19 µM, the IC50 (MCF7; Homo sapiens, MCF7, 72 h) was greater than 20 µM and the melting point was 120.7 to 122.4 °C.
